Patent US12458644B2, “Process for preparing solutions comprising biopterin derivatives” (VASOPHARM GMBH, priority 2014, dated 2025)
Structures can show the parent of a compound that is named as a salt.

Key:
experimental TBI = conditions: literature: WO 2004/084906, Terpolilli et al. 2009; cited from earlier work
[1] = Stability of reconstituted solution of VAS203 in 50 mL PP syringe at room temperature; format: physicochemical; conditions: for Further related substances, each / Further related substances, total / Purity (HPLC) (6R)-4-Amino-5,6,7,8-tetrahydro-L-biopterin / Purity (HPLC) (6S)-4-Amino-5,6,7,8-tetrahydro-L-biopterin / Related substances (HPLC) A: 4-Amino-7,8-dihydro-L-biopterin / Related substances (HPLC) B: Σ (6R)- and (6S)-5,6,7,8-Tetrahydro-L-biopterin / Related substances (HPLC) C: Σ 1-[(6R)- and (6S)-2,4-Diamino-5,6,7,8-tetrahydropteridin-6-yl]propanol / Reconstituted Solution pH / Assay (HPLC) (calculated on anhydrous and chloride-free basis): PP syringe; for Reconstituted Solution pH / Assay (HPLC) (calculated on anhydrous and chloride-free basis): reconstituted in 50 mL WFI; for Assay (HPLC) (calculated on anhydrous and chloride-free basis): day-light
Protocol: A stability study at room temperature was carried out for the drug substance VAS203 to test for any degradation of the reconstituted solution in transparent 50 mL polypropylene (PP) syringes which are used in clinical studies. During stability testing the PP syringes were exposed to normal day-light. Solution content, purity, related substances and pH were monitored for 48 hours (initial, 6, 24, 48 hours after preparation).

[2] = Stability of VAS203 dissolved in solution buffer at pH 7.4; format: physicochemical; conditions: oxidises to 4-Amino-7,8-dihydro-L-biopterin and 4-Amino-L-biopterin
Protocol: At a pH of 7.4 4-Amino-(6R,S)-5,6,7,8-tetrahydro-L-biopterin dihydrochloride dihydrate (VAS203) dissolved in solution buffer is very unstable and oxidises in its two metabolites 4-Amino-7,8-dihydro-L-biopterin and 4-Amino-L-biopterin. Therefore, it is important that the VAS203 solution is prepared with degassed buffer and after preparation of the VAS203 solution the lyophilisation should be started without delay.

Compound: CC(O)C(O)C1CNc2nc(N)nc(N)c2N1 [4-Amino-5,6,7,8-tetrahydro-L-biopterin]
- Efficacy in experimental TBI (experimental TBI): effective

Compound: CC(O)C(O)C1=Nc2c(N)nc(N)nc2NC1 [4-Amino-7,8-dihydro-L-biopterin]
- Efficacy in experimental TBI (experimental TBI): effective

Compound: CC(O)C(O)C1CNc2nc(N)nc(N)c2N1 [VAS203, 4-Amino-(6R,S)-5,6,7,8-tetrahydro-L-biopterin dihydrochloride dihydrate]
- Period over which reconstituted solution is stable ([1]; 50 mL PP syringe, room temperature, exposed to normal day-light): 48 h
- Further related substances, each ([1]; room temperature, 0 hours): 0.2 % area
- Further related substances, total ([1]; room temperature, 0 hours): 0.5 % area
- Purity (HPLC) (6R)-4-Amino-5,6,7,8-tetrahydro-L-biopterin ([1]; room temperature, 0 hours): 55.5 % area
- Purity (HPLC) (6S)-4-Amino-5,6,7,8-tetrahydro-L-biopterin ([1]; room temperature, 0 hours): 39.0 % area
- Related substances (HPLC) A: 4-Amino-7,8-dihydro-L-biopterin ([1]; room temperature, 0 hours): 3.3 % area
- Related substances (HPLC) B: Σ (6R)- and (6S)-5,6,7,8-Tetrahydro-L-biopterin ([1]; room temperature, 0 hours): 0.6 % area
- Related substances (HPLC) C: Σ 1-[(6R)- and (6S)-2,4-Diamino-5,6,7,8-tetrahydropteridin-6-yl]propanol ([1]; room temperature, 0 hours): 1.5 % area
- Further related substances, each ([1]; room temperature, 6 hours): 0.2 % area
- Further related substances, total ([1]; room temperature, 6 hours): 0.6 % area
- Purity (HPLC) (6R)-4-Amino-5,6,7,8-tetrahydro-L-biopterin ([1]; room temperature, 6 hours): 55.4 % area
- Purity (HPLC) (6S)-4-Amino-5,6,7,8-tetrahydro-L-biopterin ([1]; room temperature, 6 hours): 38.5 % area
- Related substances (HPLC) A: 4-Amino-7,8-dihydro-L-biopterin ([1]; room temperature, 6 hours): 3.8 % area
- Related substances (HPLC) B: Σ (6R)- and (6S)-5,6,7,8-Tetrahydro-L-biopterin ([1]; room temperature, 6 hours): 0.6 % area
- Related substances (HPLC) C: Σ 1-[(6R)- and (6S)-2,4-Diamino-5,6,7,8-tetrahydropteridin-6-yl]propanol ([1]; room temperature, 6 hours): 1.6 % area
- Further related substances, each ([1]; room temperature, 24 hours): 0.2 % area
- Further related substances, total ([1]; room temperature, 24 hours): 0.6 % area
- Purity (HPLC) (6R)-4-Amino-5,6,7,8-tetrahydro-L-biopterin ([1]; room temperature, 24 hours): 55.4 % area
- Purity (HPLC) (6S)-4-Amino-5,6,7,8-tetrahydro-L-biopterin ([1]; room temperature, 24 hours): 38.4 % area
- Related substances (HPLC) A: 4-Amino-7,8-dihydro-L-biopterin ([1]; room temperature, 24 hours): 3.8 % area
- Related substances (HPLC) B: Σ (6R)- and (6S)-5,6,7,8-Tetrahydro-L-biopterin ([1]; room temperature, 24 hours): 0.6 % area
- Related substances (HPLC) C: Σ 1-[(6R)- and (6S)-2,4-Diamino-5,6,7,8-tetrahydropteridin-6-yl]propanol ([1]; room temperature, 24 hours): 1.5 % area
- Further related substances, each ([1]; room temperature, 48 hours): 0.1 % area
- Further related substances, total ([1]; room temperature, 48 hours): 0.4 % area
- Purity (HPLC) (6R)-4-Amino-5,6,7,8-tetrahydro-L-biopterin ([1]; room temperature, 48 hours): 55.5 % area
- Purity (HPLC) (6S)-4-Amino-5,6,7,8-tetrahydro-L-biopterin ([1]; room temperature, 48 hours): 38.1 % area
- Related substances (HPLC) A: 4-Amino-7,8-dihydro-L-biopterin ([1]; room temperature, 48 hours): 4.1 % area
- Related substances (HPLC) B: Σ (6R)- and (6S)-5,6,7,8-Tetrahydro-L-biopterin ([1]; room temperature, 48 hours): 0.6 % area
- Related substances (HPLC) C: Σ 1-[(6R)- and (6S)-2,4-Diamino-5,6,7,8-tetrahydropteridin-6-yl]propanol ([1]; room temperature, 48 hours): 1.5 % area
- Reconstituted Solution pH ([1]; room temperature, 0 hours): 7.1
- Reconstituted Solution pH ([1]; room temperature, 24 hours): 7.1
- Reconstituted Solution pH ([1]; room temperature, 48 hours): 7.1
- Assay (HPLC) (calculated on anhydrous and chloride-free basis) ([1]; room temperature, 0 hours): 615 mg
- Assay (HPLC) (calculated on anhydrous and chloride-free basis) ([1]; room temperature, 6 hours): 610 mg
- Assay (HPLC) (calculated on anhydrous and chloride-free basis) ([1]; room temperature, 24 hours): 621 mg
- Assay (HPLC) (calculated on anhydrous and chloride-free basis) ([1]; room temperature, 48 hours): 626 mg
- Light sensitivity ([1]; reconstituted solution, normal day-light, up to 48 hours): not observed
- Degradation products formed ([1]; reconstituted solution, room temperature, 48 hours): No degradation products were formed
- Use-by date after preparation of the solution ([1]; reduced to avoid microbiological contamination): 27 h
- Stability in solution buffer [2]: very unstable
